According to patent US20200121801A1, “DRUG DELIVERY CONJUGATES CONTAINING UNNATURAL AMINO ACIDS AND METHODS FOR USING” (priority 2012, published 2020):

Tests used:
[1] = system: experimental autoimmune encephalomyelitis; experiment: Autoimmune encephalomyelitis (EAE) model; type: in vivo, rats
Method: METHOD. Autoimmune Encephalomyelitis (EAE) Model. EAE is induced in rats by immunization against 25 μg of guinea pig myelin basic protein (MBP) formulated with CFA containing 1 mg of grounded Mycobacterium tuberculosis H37Ra. Pertussis toxin is given intraperitoneally (1 μg/rat) to enhance the organ-specific autoimmunity. Starting 8 days after induction, rats are divided into […]: (1) untreated control (n=8), (2) test compound (n=7), and (3) test compound plus competitor compound (n=7), such as EC0923 competition. All treatments start on day 8 after EAE induction. The animals in the EAE control group are left untreated. […] The clinical severity of EAE is monitored on a daily basis and graded on a scale of 0 to 5 per animal. The clinical signs of ascending paralysis of EAE rats are divided into a 0-5 scale: 0=No disease, 0.5=distal limp tail, 1=limp tail, 2=mild paraparesis; ataxia-weakened hind limbs, 3=moderate paraparesis; hind limbs paresis, 4=complete hind limb paralysis, 5=complete hind limb paralysis and incontinence (euthanasia). On day 16, the animals are euthanized and brain and spinal cords are fixed in formalin for histology.

[2] = biological target: T1, folate receptors (FRs) on KB cells (Homo sapiens, UniProt P15328); experiment: Relative affinity assay (3H-folic acid competition) on KB cells; type: binding; conditions: KB cells, 1 h at 37° C.
T1 construct: FR-positive KB cells are heavily seeded into 24-well cell culture plates; endogenous in cells; host or cells: KB cells
Method: METHOD. Relative Affinity Assay. The affinity for folate receptors (FRs) relative to folate is determined according to a previously described method (Westerhof, G. R., J. H. Schornagel, et al. (1995) Mol. Pharm. 48: 459-471) with slight modification. Briefly, FR-positive KB cells are heavily seeded into 24-well cell culture plates and allowed to adhere to the plastic for 18 h. Spent incubation media is replaced in designated wells with folate-free RPMI (FFRPMI) supplemented with 100 nM ^3H-folic acid in the absence and presence of increasing concentrations of test article or folic acid. Cells are incubated for 60 min at 37° C. and then rinsed 3 times with PBS, pH 7.4. Five hundred microliters of 1% SDS in PBS, pH 7.4, is added per well. Cell lysates are then collected and added to individual vials containing 5 mL of scintillation cocktail, and then counted for radioactivity. Negative control tubes contain only the ^3H-folic acid in FFRPMI (no competitor). Positive control tubes contain a final concentration of 1 mM folic acid, and CPMs measured in these samples (representing non-specific binding of label) are subtracted from all samples.

[3] = system: experimental autoimmune uveitis; experiment: Experimental autoimmune uveitis (EAU) model
Method: Animal Experimental Autoimmune Uveitis Model. Experimental autoimmune uveitis (EAU) is induced in female Lewis rats maintained on a folate-deficient diet (Harlan Teklad, Indianapolis, Ind.). On Day 0, the animals are immunized subcutaneously with 25 μg of bovine S-Ag PDSAg peptide formulated with Freund's incomplete adjuvant containing 0.5 mg of grounded M. Tuberculosis H37Ra. Purified pertussis toxin (PT) is given at a dosage of 1 μg per animal on the same day via intraperitoneal injection. The severity of uveitis in each eye is assessed by a qualitative visual score system: 0=No disease, eye is translucent and reflects light (red reflex); 0.5 (trace)=Dilated blood vessels in the iris, 1=Engorged blood vessels in iris, abnormal pupil contraction; 2=Hazy anterior chamber, decreased red reflex; 3=Moderately opaque anterior chamber, but pupil still visible, dull red reflex; and 4=Opaque anterior chamber and obscured pupil, red reflex absent, proptosis. This assessment yields a maximum uveitis score of 8 per animal.
All treatments start on day 8 after EAU induction. The animals in the EAU control group are untreated. […] The uveitis score and animal body weight are recorded for each animal at predetermined frequencies. The clinical severity of EAU is monitored on a daily basis using an ophthalmoscope and graded on a scale of 0 to 4 per eye with a maximum possible score of 8 per animal. […]

T1 sequence (P15328 25-234): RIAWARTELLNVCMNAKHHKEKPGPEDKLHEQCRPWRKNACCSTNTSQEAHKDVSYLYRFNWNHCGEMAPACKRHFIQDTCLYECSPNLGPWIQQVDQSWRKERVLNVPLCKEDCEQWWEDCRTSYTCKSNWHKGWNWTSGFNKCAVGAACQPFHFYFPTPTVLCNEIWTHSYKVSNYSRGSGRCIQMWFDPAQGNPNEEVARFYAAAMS

SMILES: N=c1[nH]c(N)nc2ncc(CNc3ccc(C(=O)N[C@@H](CCC(=O)NNC(=O)OCCSSC[C@@H](NC(=O)[C@H](CCC(=O)NC[C@H](O)[C@@H](O)[C@H](O)[C@H](O)CO)NC(=O)[C@@H](CCC(=O)O)NC(=O)[C@H](CCC(=O)NC[C@H](O)[C@@H](O)[C@H](O)[C@H](O)CO)NC(=O)[C@@H](CCC(=O)O)NC(=O)[C@H](CCC(=O)NC[C@H](O)[C@@H](O)[C@H](O)[C@H](O)CO)NC(=O)CC[C@H](NC(=O)c4ccc(NCc5cnc6nc(N)[nH]c(=O)c6n5)cc4)C(=O)O)C(=O)O)C(=O)O)cc3)nc12 [EC1669]
- therapeutic effect with folate receptor competitor EC0923 ([1]; excess EC0923): blocked
- efficacy against EAE (clinical score) ([1]; s.c. every other day from day 8): effectively suppresses the neurological symptoms
- treatment-related weight loss ([1]; when dosed alone): not observed
- relative affinity (normalized against folic acid, set to 1) [2]: 0.53
- symptoms of EAU (uveitis score) ([3]; 250 nmol/kg s.c. q2d, five doses from day 8): effectively reduces the symptoms of EAU
- treatment-related weight loss / whole animal toxicity ([3]; rat, in vivo): does not cause whole animal toxicity
